Test results published in patent publication US20260176289A1, “SMALL MOLECULE INHIBITORS OF KRAS PROTEINS” (Merck Sharp & Dohme LLC, priority 2022, published 2026).
Like-named read-outs stand apart in the source and are kept apart here.

Tests used:
[1] = target: KRAS-G12D (Homo sapiens, UniProt P01116, G12D); experiment: SOS-catalyzed nucleotide exchange assay (Procedure A, TR-FRET), KRAS-G12D; format: biochemical; details: nucleotide exchange, read-out: KRAS G12D GNE IC50
Excerpt: (§1) Procedure for SOS-Catalyzed Nucleotide Exchange Assay for KRAS-WT, G12C/D/V, G13D, HRAS, and NRAS (Procedure A)
(§2) Recombinant KRAS-G12C protein used in this assay has an additional triple mutation (C51S/C80L/C118S). Whereas KRAS-WT, G12D/V, G13D, HRAS and NRAS are in context of their WT protein sequence background. Specifically, the SOS-catalyzed nucleotide exchange assay utilizes a preformed TR-FRET complex containing a specific biotinylated RAS protein (KRAS-WT, G12C/V/D, G13D, HRAS, NRAS; described above) with Bodipy-GDP, and Terbium-streptavidin. Compounds are preincubated with this complex for 60 minutes. Subsequently, recombinant human SOS protein and unlabeled GTP are added to initiate the exchange reaction. Small molecule inhibitors stabilize the Bodipy-GDP complex whereas the untreated protein rapidly exchanges Bodipy-GDP for unlabeled GTP resulting in reduced TR-FRET signal.
(§3) To assemble the preformed TR-FRET complexes, each biotinylated RAS protein is diluted to 2 μM in an EDTA Buffer (20 mM HEPES pH 7.5, 50 mM sodium chloride, 10 mM EDTA, and 0.01% Tween) and incubated at room temperature for one hour. This mixture is then further diluted to 90 nM in an Assay Buffer (20 mM HEPES pH 7.5, 150 mM sodium chloride, 10 mM magnesium chloride, and 0.005% Tween) containing 15 nM of Terbium-Streptavidin (Invitrogen, catalog #PV3577) and 900 nM of Bodipy-GDP (Invitrogen, catalog #G22360) and incubated at room temperature for six hours. It should be noted that this preformed TR-FRET complex for each of the RAS protein were made ahead of time, aliquoted and stored at −80° C. until the day of the experiment.
(§4) Each test compound (10 mM stock in DMSO) is diluted in DMSO to make a final-10-point, 3-fold dilution and is acoustically dispensed into a 384-well assay plate (Corning, catalog #3820) using an Echo 550 (Labcyte). Each well of the assay plate receives 3 μL of a specific 3×RAS preformed TR-FRET complex and 3 μL of Assay Buffer and is incubated at room temperature for 60 minutes (preincubation time). Each well then receives 3 μL of 3×recombinant human SOS protein and GTP (Sigma, G8877) in Assay Buffer and is incubated at room temperature for 30 minutes (G13D), 60 minutes (KRAS WT/G12C/D, H/NRAS) or 90 minutes for G12V. The final reaction in each well of 9 μL consists of 3 mM GTP, specific Ras and SOS proteins in the following concentrations: KRAS-G12C/SOS=3 nM/40 nM, KRAS-WT and G12D/SOS=1 nM/40 nM, KRAS-G12V/SOS=1.25 nM/160 nM. KRAS-G13D/SOS=1.25 nM/0 nM, HRAS and NRAS=1.25 nM/40 nM.
(§5) The time-resolved fluorescence resonance energy transfer (TR-FRET) signal is measured on an Envision (PerkinElmer) plate reader: Excitation filter=340 nm; emission 1=495 nm; emission2=520 nm; dichroic mirror=D400/D505; delay time=[…]. The signal of each well is determined as the ratio of the emission at 520 nm to that at 495 nm. Percent effect of each well is determined after normalization to control wells containing DMSO (no effect) or a saturating concentration of inhibitor (max effect). The apparent effect as a function of compound concentration is fit to a four-parameter logistic equation.

[2] = system: AsPC-1 cells; experiment: Cellular phospho-ERK assay, AsPC-1 cells (homozygous KRAS-G12D); format: cell-based; details: Homo sapiens, ASPC1, 2 h, read-out: AsPC1 pERK IC50
Method: Procedure for Cellular Phospho-ERK Assay in KRAS Wild Type and Mutant (G12D, G12V) Cell Lines
MKN-1 cells (JCRB JCRB0252) containing amplified wild-type KRAS, were cultured in growth medium that contains RPMI 1640-GlutaMAX™-I (ThermoFisher Scientific 61870) containing 10% heat inactivated fetal bovine serum (ThermoFisher Scientific 10091148), 1 mM sodium pyruvate and 10 mM HEPES. PANC08.13 cells (ATCC® CRL-2551™), containing homozygous KRAS-G12D activating mutation, were cultured in growth medium made of RPMI1640-GlutaMAX™-I (ThermoFisher Scientific 61870) containing 15% heat inactivated fetal bovine serum (ThermoFisher Scientific 10091148)). AsPC-1 cells (ATCC® CRL-1682™), containing homozygous KRAS-G12D activating mutation, were cultured in T150 flask in growth medium (RPMI medium 1640-GlutaMAX™-I (ThermoFisher Scientific 61870) containing 10% fetal bovine serum (ThermoFisher Scientific 10091148)). SW620 cells (ATCC® […]), containing homozygous KRAS-G12V activating mutation, were cultured in growth medium that contains RPMI 1640-GlutaMAX™-I (ThermoFisher Scientific 61870) containing 10% heat inactivated fetal bovine serum (ThermoFisher Scientific 10091148).
Cells for the assay were harvested in growth medium after TrypLE (ThermoFisher scientific 12604021) digestion and were seeded in a 384-well collagen coated cell culture plate (Corning 356702) at a density of 10,000-15,000 cells/20 μL/well, and incubated at 37° C., 5% CO2 overnight. The compound (with 10 mM stock concentration) dose-response titrations were prepared [30 μM final ERK detection assay concentration and 1:3 dilutions, 10-point dose response] and appropriate amounts (270 nL) of test compounds were dispensed in a 384-well intermediate plate using an Echo 550 liquid handler. 30 μL/well of RPMI medium 1640-GlutaMAX™—I was added to the intermediate plate and the contents of the intermediate plate (10 μL/well) were then transferred to the 384-well collagen coated cell culture plate, which was incubated at 37° C., 5% CO2 for 2 hours. After removal of medium from the collagen coated cell culture plate, cells were lysed in lysis buffer from Alpha SureFire® Ultra™ Multiplex p-ERK and total ERK assay kit (PerkinElmer MPSU-PTERK) containing Halt™ Protease and Phosphatase inhibitor cocktail (ThermoFisher Scientific 78446) at room temperature with constant shaking at 300 rpm for 30 minutes. The cell lysates were then transferred to an OptiPlate-384 plate (PerkinElmer 6005620), and the phosphorylation of ERK (p-ERK) and total ERK levels were detected by Alpha SureFire® Ultra™ Multiplex p-EEK kit and total ERK assay kit (PerkinElmer MPSU-PTERK) following the manufacturer's protocol. Assay plates were read on a En Vision Multimode Plate Reader (PerkinElmer), and the ratio of p-ERK vs. total ERK in each well was used as the final readout. Dose response curves were analyzed using a 4-parameter logistic model to calculate IC50 values using Spotfire software.

[3] = target: KRAS-G12V (Homo sapiens, UniProt P01116, G12V); experiment: SOS-catalyzed nucleotide exchange assay (Procedure A, TR-FRET), KRAS-G12V; format: biochemical; details: nucleotide exchange, read-out: KRAS G12V GNE IC50
KRAS-G12V, sequence (P01116 with tags, fused parts or gaps isoform P01116-2 G12V): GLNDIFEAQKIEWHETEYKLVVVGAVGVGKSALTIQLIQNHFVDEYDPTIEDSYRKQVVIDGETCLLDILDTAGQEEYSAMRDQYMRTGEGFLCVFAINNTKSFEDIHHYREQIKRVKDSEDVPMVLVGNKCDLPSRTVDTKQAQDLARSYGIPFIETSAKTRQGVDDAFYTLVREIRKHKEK
Excerpt: as §1, §2, §3, §4, §5

[4] = target: KRAS-WT (Homo sapiens, UniProt P01116); experiment: SOS-catalyzed nucleotide exchange assay (Procedure A, TR-FRET), KRAS-WT; format: biochemical; details: nucleotide exchange, read-out: KRAS WT GNE IC50
KRAS-WT, sequence (P01116 with tags, fused parts or gaps isoform P01116-2): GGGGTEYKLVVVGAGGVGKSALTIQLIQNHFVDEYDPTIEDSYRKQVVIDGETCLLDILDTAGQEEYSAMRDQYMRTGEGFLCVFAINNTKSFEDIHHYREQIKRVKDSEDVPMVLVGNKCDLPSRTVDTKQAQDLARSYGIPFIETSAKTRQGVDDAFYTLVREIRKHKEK
Excerpt: as §1, §2, §3, §4, §5

KRAS-G12D, sequence (P01116 with tags, fused parts or gaps isoform P01116-2 G12D): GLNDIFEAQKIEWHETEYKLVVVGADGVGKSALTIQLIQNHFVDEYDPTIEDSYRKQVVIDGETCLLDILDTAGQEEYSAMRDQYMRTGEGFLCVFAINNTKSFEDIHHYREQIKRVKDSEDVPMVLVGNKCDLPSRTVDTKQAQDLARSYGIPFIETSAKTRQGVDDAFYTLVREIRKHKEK

| SMILES | IC50 [1] [nM] | IC50 ([2]; KRAS-G12D, 2 hours) [nM] | IC50 [3] [nM] | IC50 [4] [nM] | IC50 ([2]; 2 hours compound incubation) [nM] |
| --- | --- | --- | --- | --- | --- |
| C[C@@H]1CN(C[C@@]2(COc3nc(N4CCOC[C@@](C)(O)C4)c4c(n3)sc3c(-c5c(C6(F)CC6)c(Cl)cc6[nH]ncc56)nccc34)CC2(F)F)CCO1 [Ex-243] | 87.3 |  | 333 | 986 | 943 |
| Cc1cc2[nH]ncc2c(-c2nccc3c2sc2nc(OC[C@@]45CCCN4C[C@H](F)C5)nc(N4CCOCC(O)(CF)C4)c23)c1C(F)(F)F (stereo partly drawn) [Ex-202, 6-(fluoromethyl)-4-(2-(((2R,7aS)-2-fluorotetra-hydro-1H-pyrrolizin-7a(5H)-yl)methoxy)-8-(6-methyl-5-(trifluoro-methyl)-1H-indazol-4-yl)-pyrido[4′,3′:4,5]thieno [2,3-d]pyrimidin-4-yl)-1,4-oxazepan-6-ol] | 97.5 |  | 229 | 292 | 701 |
| COC1CC2(C1)CN(C[C@@]1(COc3nc(N4CCOC[C@@](C)(O)C4)c4c(n3)sc3c(-c5c(C6(F)CC6)c(Cl)cc6[nH]ncc56)nccc34)CC1(F)F)C2 [Ex-263, (6S)-4-(8-(6-chloro-5-(1-fluorocyclopropyl)-1H-indazol-4-yl)-2-(((R)-2,2-difluoro-1-((6-methoxy-2-azaspiro[3.3]heptan-2-yl)methyl)cyclopropyl)metho-xy)pyrido[4′,3′:4,5]thieno[2,3-d]pyrimidin-4-yl)-6-methyl-1,4-oxazepan-6-ol] | 3.02 |  | 12.5 | 11.4 | 111 |
| COCc1cc2[nH]ncc2c(-c2nccc3c2sc2nc(OC[C@@]45CCCN4C[C@H](F)C5)nc(N4CCOC[C@@](C)(O)C4)c23)c1C1CC1 [Ex-50, (6S)-4-(8-(5-cyclopropyl-6-(methoxymethyl)-1H-indazol-4-yl)-2-(((2R,7aS)-2-fluorotetrahydro-1H-pyrrolizin-7a(5H)-yl)methoxy)pyrido[4′,3′:4,5]thi-eno[2,3-d]pyrimidin-4-yl)-6-methyl-1,4-oxazepan-6-ol] | 243 | 3960 | 291 | 326 |  |

The remaining compounds from weak to strong by IC50 [1], led by results:

| IC50 [1] [nM] | IC50 ([2]; KRAS-G12D, 2 hours) [nM] | IC50 [3] [nM] | IC50 [4] [nM] | IC50 ([2]; 2 hours compound incubation) [nM] | SMILES |
| --- | --- | --- | --- | --- | --- |
| 230 | 2150 | 157 | 662 |  | C[C@@]1(O)COCCN(c2nc(OC[C@@]34CCCN3C[C@H](F)C4)nc3sc4c(-c5cccc6c5CC5CC65)nccc4c23)C1 (single isomer, unassigned) [Ex-119] |
| 165 | 670 | 278 | 380 |  | CCC1=CC(F)(F)c2cc3[nH]ncc3c(-c3nccc4c3sc3nc(OC[C@@]56CCCN5C[C@H](F)C6)nc(N5CCOC[C@@](C)(O)C5)c34)c21 [Ex-114, (6S)-4-(8-(5-ethyl-7,7-difluoro-1,7-dihydrocyclopenta[f]inda-zol-4-yl)-2-(((2R,7aS)-2-fluorotetrahydro-1H-pyrrolizin-7a(5H)-yl)methoxy)pyrido[4′,3′:4,5]thi-eno[2,3-d]pyrimidin-4-yl)-6-methyl-1,4-oxazepan-6-ol] |
| 72.4 | 934 | 157 | 166 |  | Cn1ccc2cc3[nH]ncc3c(-c3nccc4c3sc3nc(OC[C@@]56CCCN5C[C@H](F)C6)nc(N5CCOC[C@@](C)(O)C5)c34)c21 [Ex-46] |
| 72.1 | 1900 | 98.2 | 185 |  | Cc1cc2[nH]ncc2c(-c2nccn3c2cc2nc(OC[C@@]45CCCN4C[C@H](F)C5)nc(N4CCOC[C@@](C)(O)C4)c23)c1C1CC1 [Ex-295, (S)-4-(9-(5-cyclopropyl-6-methyl-1H-indazol-4-yl)-2-(((2R,7aS)-2-fluorotetrahydro-1H-pyrrolizin-7a(5H)-yl)methoxy)pyrazino[1′,2′:1,5]pyrrolo[3,2-d]pyrimidin-4-yl)-6-methyl-1,4-oxazepan-6-ol] |
| 65 | 399 | 103 | 129 |  | C[C@@]1(O)COCCN(c2nc(OC[C@@]34CCCN3C[C@H](F)C4)nc3sc4c(-c5c6c(cc7[nH]ncc57)C5CC5C6)nccc4c23)C1 (stereo partly drawn) [Ex-91, (6S)-4-(2-(((2R,7aS)-2-fluorotetrahydro-1H-pyrrolizin-7a(5H)-yl)methoxy)-8-(5,5a,6,6a-tetrahydro-1H-cyclopropa[3,4]cyclopen-ta[1,2-f]indazol-4-yl)pyrido[4′,3′:4,5]thieno [2,3-d]pyrimidin-4-yl)-6-methyl-1,4-oxazepan-6-ol] |
| 61.6 | 1150 | 89.8 | 136 |  | C#Cc1c(F)ccc2cc3[nH]ncc3c(-c3nccc4c5c(N6CCOC[C@@](C)(O)C6)nc(OC[C@@]67CCCN6C[C@H](F)C7)nc5n(C)c34)c12 [Ex-25, (6S)-4-(8-(5-ethynyl-6-fluoro-1H-benzo[f]indazol-4-yl)-2-(((2R,7aS)-2-fluorotetrahydro-1H-pyrrolizin-7a(5H)-yl)methoxy)-9-methyl-9H-pyrido[4′,3′:4,5]pyrrolo[2,3-d]pyrimidin-4-yl)-6-methyl-1,4-oxazepan-6-ol] |
